PubChem BioAssay (NCI)
Values joined by “and” are separate entries in the source; they are usually repeats but may differ in a detail not shown here. Equal values may be shown once.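 Method: 48-hour compound exposure of cells in 96-well plates, five concentrations, linear interpolation of endpoints. The concentration for 50% growth inhibition is given as GI50. TGI denotes the concentration required for complete inhibition of growth.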

Legend:
Test in all cases: inhibition of tumour cell growth, NCI panel, 48 h
[1] = system: CAKI-1 renal
[2] = system: HOP-92 NSCLC
[3] = system: IGROV1 ovarian
[4] = system: M14 melanoma
[5] = system: MDA-MB-231 breast
[6] = system: MOLT-4 leukemia
[7] = system: RPMI-8226 leukemia
[8] = system: SN12C renal
[9] = system: RXF 393 renal
[10] = system: SNB-75 CNS

Row | Structure (SMILES) | GI50 [1] | TGI [1] | TGI [2] | GI50 [3] | TGI [3] | GI50 [4] | TGI [4] [µM] | GI50 [5] | GI50 [6] | TGI [6] [µM] | GI50 [7] | TGI [7] [µM] | GI50 [8] | TGI [8] [µM] | TGI [9] [µM] | TGI [10] [µM] | GI50 [2] [nM] | GI50 [9] [nM] | GI50 [10] [nM] | TGI [5] [µM]
1 | O=C(O)C[C@H](O)C[C@H](O)/C=C/c1c(C2CC2)nc2ccccc2c1-c1ccc(F)cc1 | 2660 nM and 1250 nM | 12.5 µM and 5.31 µM | 0.227 µM and 0.0622 µM | 5.25 µM and 3.6 µM | 43.5 µM and > 100 µM | 5.34 µM and 4.38 µM | > 100 | 287 nM and 56.4 nM | > 100000 nM and 54500 nM | > 100 | 25 µM and 10.4 µM | > 100 | 2400 nM and 668 nM | > 100 | – | – | – | – | – | –
2 | C[N+]1=c2c3cccc4cccc(c(=O)n2CC1)c43 | – | > 100 µM | 61.8 µM | – | 60.5 µM | – | 28.7 | – | – | 10.6 | – | 93.1 | – | 68.8 | 25.5 | 45 | – | – | – | –
3 | O=C1C2C(C(=O)N1c1ccccc1)C1c3ccccc3C2C2C(=O)N(c3ccccc3)C(=O)C21 (stereo not drawn) | – | > 100 µM | > 100 µM | – | > 100 µM | – | > 100 | – | – | > 100 | – | > 100 | – | > 100 | > 100 | 22.6 | – | – | – | –
4 | CC(C)/C=C1\CCC(CN2CCOCC2)C1=O (stereo not drawn) | – | 8.93 µM | 38.9 µM | – | 20.8 µM | – | 26.1 | – | – | 10.2 | – | 4.47 | – | 36.5 | 14.1 | – | – | – | – | –
5 | CCC[CH2][Sn]([CH2]CCC)([O]C(=O)c1cc(OC)c(OC)cc1OC)[O][Sn]([CH2]CCC)([CH2]CCC)[O]C(=O)c1cc(OC)c(OC)cc1OC | 161 nM | 0.686 µM | 0.564 µM | 1.17 µM | 2.68 µM | 0.282 µM | 0.797 | – | 101 nM | 0.786 | 0.236 µM | 0.667 | 532 nM | 1.72 | 0.304 | 0.7 | 206 | 151 | 124 | –
6 | C/C(CC(=O)NCCc1ccccc1)=N\NS(=O)(=O)c1ccc(C)cc1 | – | – | > 100 µM | – | > 100 µM | – | > 100 | – | – | > 100 | – | > 100 | – | – | > 100 | > 100 | – | – | – | –
7 | CN(C)Cc1ccc(-c2cc3onc(-c4ccccc4)c3c(=O)n2C)cc1 | – | > 100 µM | 87.6 µM | – | > 100 µM | – | 30.7 | – | – | 49.2 | – | 54.9 | – | > 100 | – | – | – | – | – | > 100
8 | COC1C(OC(=O)c2ccc(C)[nH]2)C(O)C(Oc2ccc3c(O)c(NC(=O)c4c[nH]c(C(=O)Nc5c(O)c6ccc(OC7OC(C)(C)C(OC)C(OC(=O)c8ccc(C)[nH]8)C7O)c(C)c6oc5=O)c4C)c(=O)oc3c2C)OC1(C)C (stereo not drawn) | – | 6.08 µM | – | – | 3.62 µM | – | – | – | – | 8.47 | – | 4.83 | – | 7.16 | 2.23 | 4.85 | – | – | – | –
9 | Cc1ccc(/C=C/c2c(C(=O)/C=C/c3ccccc3)c(C)nc3ccccc23)cc1 | – | – | 4.34 µM | 1.41 µM | 4.48 µM | 1.87 µM | 4.52 | – | 708 nM | 4.29 | 1.54 µM | 5.13 | 1870 nM | 3.85 | 2.88 | – | 1520 | 1530 | – | –
10 | COc1ccc(-c2cc(=O)n(-c3nc4ccccc4[nH]3)[nH]2)cc1OC | 4790 nM | > 100 µM | – | 6.08 µM | 76.2 µM | 6.74 µM | > 100 | 19500 nM | 261 nM | 0.648 | 4.61 µM | 41.3 | 8850 nM | > 100 | 11.9 | 81.1 | – | 1240 | 4990 | > 100
11 | C/C(CC(=O)Nc1cccc(Cl)c1C)=N\NC(N)=S | – | – | > 100 µM | – | > 100 µM | – | > 100 | – | – | > 100 | – | > 100 | – | – | > 100 | > 100 | – | – | – | –
12 | COc1ccccc1N=Nc1c(-c2ccccc2)nn(C(=O)CC(=O)Nc2cccc(C)c2)c1-c1ccccc1 | – | > 100 µM | – | – | > 100 µM | – | > 100 | – | – | 50.6 | – | – | – | > 100 | > 100 | 93.5 | – | – | – | –
13 | CCO/C=C1\N=C(c2ccc(Cl)c(Cl)c2)OC1=O | – | > 100 µM | > 100 µM | – | > 100 µM | – | > 100 | – | – | > 100 | – | > 100 | – | > 100 | > 100 | > 100 | – | – | – | –
14 | CC(C)N(C(=O)c1cccc(C(=O)N(C(C)C)C(C)C)c1)C(C)C | – | > 100 µM | > 100 µM | – | > 100 µM | – | > 100 | – | – | > 100 | – | 67.1 | – | > 100 | – | > 100 | – | – | – | –
15 | O=C(Oc1cccc(Cl)c1)c1ccccc1Nc1ccnc(C(F)(F)F)c1 | 2130 nM | 4.1 µM | 32.1 µM | 15.2 µM | > 100 µM | 1.77 µM | 4.46 | 1690 nM | 938 nM | > 100 | 1.83 µM | 4.33 | 2920 nM | 6.18 | – | – | 8740 | – | – | 4.7
16 | C#CC1(O)CCC2C3CCc4cc(Oc5nc(F)nc(-c6c7ccccc7c7n6CCS7)n5)ccc4C3CC[C@@]21C (stereo partly drawn) | – | 73 µM | 47 µM | – | > 100 µM | – | 40.5 | – | – | > 100 | – | 57.5 | – | – | – | 49.1 | – | – | – | –
17 | CCCn1c2c(c3c(O)cccc31)C(=O)c1ccccc1-2 | 20200 nM | 61.9 µM | – | 10.9 µM | > 100 µM | 60.6 µM | > 100 | 22100 nM | 47.5 nM | 7.31 | 7.34 µM | > 100 | 21900 nM | 98.5 | – | – | – | – | – | 73.8
18 | C=C1CC(CC)(CCN2C(=O)c3ccccc3C2=O)OC1=O (stereo not drawn) | – | 7.59 µM | – | – | > 100 µM | – | 22.8 | – | – | > 100 | – | > 100 | – | 45.5 | 29.9 | > 100 | – | – | – | –
19 | COc1cc(CNc2nc3c(N)cc(C(F)(F)F)cc3nc2-c2ccccc2)cc(OC)c1OC | – | – | > 100 µM | > 100 µM | > 100 µM | – | > 100 | – | > 100000 nM | > 100 | – | > 100 | – | > 100 | 69.4 | > 100 | – | – | – | –
